Tests used:
Conditions in all cases: 72 h
Caco-2 [1] = experiment: cell viability relative to DMSO; higher = less toxic
Calu-3 [2] = experiment: as above
HepG2 [3] = experiment: as above
U2OS [4] = experiment: as above
Vero E6 [5] = experiment: as above
Calu-3 [6] = experiment: relative viability EC50 (midpoint between 100% and the lowest measured viability); higher = less toxic
HepG2 [7] = experiment: as above
U2OS [8] = experiment: as above
Vero E6 [9] = experiment: as above
Caco-2 [10] = experiment: drug sensitivity score (DSS) for viability; higher = more toxic; extreme values may be limits of the assay
Calu-3 [11] = experiment: as above
HepG2 [12] = experiment: as above
U2OS [13] = experiment: as above
Vero E6 [14] = experiment: as above
Caco-2 [15] = experiment: relative viability EC50 (midpoint between 100% and the lowest measured viability); higher = less toxic

CC1=C(CCC(=O)O)c2cc3[nH]c(cc4nc(cc5[nH]c(cc1n2)c(C)c5C(C)O)C(C)=C4C(C)O)c(C)c3CCC(=O)O (stereo not given) [hematoporphyrin] gave a cell viability (Caco-2 [1]; 1 nM) of 109%, a cell viability (Caco-2 [1]; 10 nM) of 96.3% and a cell viability (Caco-2 [1]; 100 nM) of 96.6%. It also gave a cell viability (Caco-2 [1]; 1000 nM) of 105%, a cell viability (Caco-2 [1]; 10000 nM) of 74.1% and a cell viability (Calu-3 [2]; 1 nM) of 97.8%. For the same molecule, the cell viability (Calu-3 [2]; 10 nM) was 89%, the cell viability (Calu-3 [2]; 100 nM) was 87.2% and the cell viability (Calu-3 [2]; 1000 nM) was 94.5%. The cell viability (Calu-3 [2]; 10000 nM) was 88.1%, the cell viability (HepG2 [3]; 1 nM) was 103% and the cell viability (HepG2 [3]; 10 nM) was 99.9%. The cell viability (HepG2 [3]; 100 nM) was 91.3%, the cell viability (HepG2 [3]; 1000 nM) was 99.1% and the cell viability (HepG2 [3]; 10000 nM) was 79.2%. For the same molecule, the cell viability (U2OS [4]; 1 nM) was 100%, the cell viability (U2OS [4]; 10 nM) was 96.7% and the cell viability (U2OS [4]; 100 nM) was 102%. It also gave a cell viability (U2OS [4]; 1000 nM) of 93.6%, a cell viability (U2OS [4]; 10000 nM) of 94.5% and a cell viability (Vero E6 [5]; 1 nM) of 106%. It also gave a cell viability (Vero E6 [5]; 10 nM) of 106%, a cell viability (Vero E6 [5]; 100 nM) of 98.8% and a cell viability (Vero E6 [5]; 1000 nM) of 104%. The cell viability (Vero E6 [5]; 10000 nM) was 80.3%, the “relative viability EC50” value (Calu-3 [6]) was greater than 10 µM and the “relative viability EC50” value (HepG2 [7]) was greater than 10 µM. For the same molecule, the “relative viability EC50” value (U2OS [8]) was greater than 10 µM, the “relative viability EC50” value (Vero E6 [9]) was greater than 10 µM and the drug sensitivity score (Caco-2 [10]) was 0.8. The drug sensitivity score (Calu-3 [11]) was 0.6, the drug sensitivity score (HepG2 [12]) was 0.8 and the drug sensitivity score (U2OS [13]) was 0. The drug sensitivity score (Vero E6 [14]) was 0.4.
OCc1c[nH]c2ccccc12 [indole-3-carbinol] was tested, and the cell viability (Caco-2 [1]; 1 nM) was 103%, the cell viability (Caco-2 [1]; 10 nM) was 103% and the cell viability (Caco-2 [1]; 100 nM) was 99%. It also gave a cell viability (Caco-2 [1]; 1000 nM) of 97.8%, a cell viability (Caco-2 [1]; 10000 nM) of 87.4% and a cell viability (HepG2 [3]; 1 nM) of 105%. For the same molecule, the cell viability (HepG2 [3]; 10 nM) was 96%, the cell viability (HepG2 [3]; 100 nM) was 99.9% and the cell viability (HepG2 [3]; 1000 nM) was 88.1%. For the same molecule, the cell viability (HepG2 [3]; 10000 nM) was 101%, the cell viability (U2OS [4]; 1 nM) was 99.9% and the cell viability (U2OS [4]; 10 nM) was 101%. The cell viability (U2OS [4]; 100 nM) was 99.3%, the cell viability (U2OS [4]; 1000 nM) was 104% and the cell viability (U2OS [4]; 10000 nM) was 93.7%. It also gave a cell viability (Vero E6 [5]; 1 nM) of 104%, a cell viability (Vero E6 [5]; 10 nM) of 97.1% and a cell viability (Vero E6 [5]; 100 nM) of 93.1%. The cell viability (Vero E6 [5]; 1000 nM) was 99.2%, the cell viability (Vero E6 [5]; 10000 nM) was 97.5% and the “relative viability EC50” value (Caco-2 [15]) was greater than 10 µM. For the same molecule, the “relative viability EC50” value (HepG2 [7]) was greater than 10 µM, the “relative viability EC50” value (U2OS [8]) was greater than 10 µM and the “relative viability EC50” value (Vero E6 [9]) was greater than 10 µM. The drug sensitivity score (Caco-2 [10]) was 0.2, the drug sensitivity score (HepG2 [12]) was 0 and the drug sensitivity score (U2OS [13]) was 0. The drug sensitivity score (Vero E6 [14]) was 0.
With C[C@H](N)[C@H](O)c1ccc(O)c(O)c1 [levonordefrin] the cell viability (Caco-2 [1]; 1 nM) was 97.8%, the cell viability (Caco-2 [1]; 10 nM) was 89.7% and the cell viability (Caco-2 [1]; 100 nM) was 96.8%. It also gave a cell viability (Caco-2 [1]; 1000 nM) of 88.6%, a cell viability (Caco-2 [1]; 10000 nM) of 93.8% and a cell viability (Calu-3 [2]; 1 nM) of 102%. For the same molecule, the cell viability (Calu-3 [2]; 10 nM) was 96.8%, the cell viability (Calu-3 [2]; 100 nM) was 98% and the cell viability (Calu-3 [2]; 1000 nM) was 104%. The cell viability (Calu-3 [2]; 10000 nM) was 100%, the cell viability (HepG2 [3]; 1 nM) was 105% and the cell viability (HepG2 [3]; 10 nM) was 105%. It also gave a cell viability (HepG2 [3]; 100 nM) of 97%, a cell viability (HepG2 [3]; 1000 nM) of 96.8% and a cell viability (HepG2 [3]; 10000 nM) of 93.9%. The cell viability (Vero E6 [5]; 1 nM) was 109%, the cell viability (Vero E6 [5]; 10 nM) was 109% and the cell viability (Vero E6 [5]; 100 nM) was 103%. The cell viability (Vero E6 [5]; 1000 nM) was 108%, the cell viability (Vero E6 [5]; 10000 nM) was 91.9% and the “relative viability EC50” value (Caco-2 [15]) was greater than 10 µM. The “relative viability EC50” value (Calu-3 [6]) was greater than 10 µM, the “relative viability EC50” value (HepG2 [7]) was greater than 10 µM and the “relative viability EC50” value (Vero E6 [9]) was greater than 10 µM. It also gave a drug sensitivity score (Caco-2 [10]) of 0, a drug sensitivity score (Calu-3 [11]) of 0 and a drug sensitivity score (HepG2 [12]) of 0. For the same molecule, the drug sensitivity score (Vero E6 [14]) was 0.

From the supplement of paper PMC13380429
